# Test results: patent US7659277B2, “Ubiquitin ligase inhibitors and methods related thereto” (Proteologies, Ltd., priority 2003, dated 2010)
# Where two headings read alike, the source gives them in different places.
# Columns and labels:
# HIV-1 = test: HIV maturation (budding) in virus-like particle assay, HIV-1 p24 antigen ELISA; assay type: cell-based; settings: Human immunodeficiency virus 1, read-out: Budding (3 μM)
# Text: Compounds were further assessed for effects on maturation of HIV particles in a virus-like particle assay.
# Hmdm2 = Hmdm2 (Homo sapiens, UniProt Q00987); test: Selectivity (% A in 1 μM), ubiquitin ligase activity of Hmdm2; assay type: biochemical; settings: read-out: Selectivity (% A* in 1 μM) Hmdm2
# POSH = target: T1, POSH (Homo sapiens, UniProt Q7Z6J0); test: Selectivity (% A in 1 μM), ubiquitin ligase activity of POSH; assay type: biochemical; settings: read-out: Selectivity (% A* in 1 μM) POSH
# T1 construct: GST-POSH lot NB81/p.118 3.6 mg/ml; fused on or other part: GST tag, used for detection with anti-GST XL665
# T1 sequence (Q7Z6J0 1-269 limits assumed): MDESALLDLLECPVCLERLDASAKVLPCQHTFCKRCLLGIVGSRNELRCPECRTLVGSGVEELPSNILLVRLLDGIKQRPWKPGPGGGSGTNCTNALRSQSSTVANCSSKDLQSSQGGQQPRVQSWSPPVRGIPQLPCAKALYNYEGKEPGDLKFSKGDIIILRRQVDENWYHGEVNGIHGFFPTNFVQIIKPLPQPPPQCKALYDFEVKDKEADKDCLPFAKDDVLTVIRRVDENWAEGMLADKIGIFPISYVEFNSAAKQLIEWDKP
# Method: Experimental Protocols: 1. HTS Screening Assay Procedure • Microplates 10109D to 10114D compounds at 1 mM. • (Controls in column 1). • All compounds were perchase from ChemBridge corporation: ChemBridge corporation 16981 Via Tazon, Suite G San Diego, Calif. 92127 a. Microplates Labeling • Put labels to 6 PS U-bottom clear microplate. • Put labels to 18 black microplates (triplicats). b. Microplates Preparation • Put 100 μl GST-POSH at 33 nM in wells of the clear PS U-bottom microplates (exept wells A1-D1). • Negative control: place 100 μl dH2O in wells A1-D1. • (Positive control: place 100 μl GST-POSH at 33 nM in wells E1-H1). • Put 8 μl enzymes solution ×4 to black microplates (column 1 to 11). c. Incubation of E3 with Compounds • Transfer 5 μl of compounds (at 1 mM) to the microplates containing 100 μl GST-POSH. • Add 5 μl of DMSO to controls column 1. • Incubation 30 minutes at RT. d. […] 2. […] Microplates Labeling • Put labels to 4 clear PP clear microplate (18.2 μM, 9.1 uM, 1.82 uM, 910 nM,). • Put labels to 5 clear PS U-bottom clear microplate 4.44 μM, 909, 444, 91 and 44 nM) • Put labels to 15 black microplates (triplicates). f. Original Microplate Dilutions • Put DMSO 40 μl to (18.2 μM, 1.82 uM plates) and 20 ul to (9.1 uM, 910 nM plates. • Mix by pipetation the original microplate (3× up and down 45 μl). • Transfer 10 μl of compounds from the original microplate (at 91 μM) to the next microplate (=18.2 μM) on splitting apparatus. • Mix by pipetation the 18.2 uM microplate (3× up and down 45 μl). • Transfer 20 μl of compounds from the 18.2 uM microplate to the next microplate (=9.1 μM) on splitting apparatus. • Mix by pipetation the 9.1 uM microplate (3× up and down 45 μl). • Transfer 10 μl of compounds from the 9.1 uM microplate to the next microplate (=1.82 μM) on splitting apparatus. • Mix by pipetation the 1.82 uM microplate (3× up and down 45 μl). • Transfer 20 μl of compounds from the 1.82 uM microplate to the next microplate (=910 nM) on splitting apparatus • Mix by pipetation. g. Microplates Preparation • Put 123 μl GST-POSH at 33 nM in wells of the 5 clear PS U-bottom clear microplates. • Positive control: place 123 μl GST-POSH at 33 nM in well A12-h12 13 μl DMSO. • Negative control: place 123 μl dH2O in well B1 and 13 μl DMSO. • Put 8 μl enzymes solution ×4 to 15 black microplates. • Controls: put 8 μl enzymes solution ×4 to wells A1 to F1. h. Incubation of POSH with Compounds • Take 7 μl of compounds at original plate (91 μM) and put into the 4.44 μM labeled microplate containing 123 μl GST-POSH, on splitting apparatus. • Mix by pipetation (3× up and down 115 μl), note time. • Take 7 μl of compounds at 18.2 μM and put into the 910 nM labeled microplate containing 123 μl GST-POSH, on splitting apparatus. • Mix by pipetation (3× up and down 115 μl), note time. • Take 7 μl of compounds at 9.1 μM and put into the 444 nM labeled microplate containing 123 μl GST-POSH, on splitting apparatus. • Mix by pipetation (3× up and down 115 μl), note time. • Take 7 μl of compounds at […] and put into the 91 nM labeled microplate containing 123 μl GST-POSH, on splitting apparatus. • Mix by pipetation (3× up and down 115 μl), note time. • Take 7 μl of compounds at 91.0 nM and put into the 44 nM labeled microplate containing 123 μl GST-POSH, on splitting apparatus. • Mix by pipetation (3× up and down 115 μl), note time. • Incubation 30 minutes at RT. i.
# E2 protein = assay type: biochemical; settings: % activity at 1 μM compound; control is related to 100% activity; HTS protocol
# c-cbl = c-cbl (Homo sapiens, UniProt P22681); test: Selectivity (% A in 1 μM), ubiquitin ligase activity of c-cbl; assay type: biochemical; settings: % activity at 1 μM compound; control is related to 100% activity; HTS protocol
# [1] = % activity at 1 μM compound, control is related to 100% activity, HTS protocol
# Hmdm2, sequence (Q00987 whole entry): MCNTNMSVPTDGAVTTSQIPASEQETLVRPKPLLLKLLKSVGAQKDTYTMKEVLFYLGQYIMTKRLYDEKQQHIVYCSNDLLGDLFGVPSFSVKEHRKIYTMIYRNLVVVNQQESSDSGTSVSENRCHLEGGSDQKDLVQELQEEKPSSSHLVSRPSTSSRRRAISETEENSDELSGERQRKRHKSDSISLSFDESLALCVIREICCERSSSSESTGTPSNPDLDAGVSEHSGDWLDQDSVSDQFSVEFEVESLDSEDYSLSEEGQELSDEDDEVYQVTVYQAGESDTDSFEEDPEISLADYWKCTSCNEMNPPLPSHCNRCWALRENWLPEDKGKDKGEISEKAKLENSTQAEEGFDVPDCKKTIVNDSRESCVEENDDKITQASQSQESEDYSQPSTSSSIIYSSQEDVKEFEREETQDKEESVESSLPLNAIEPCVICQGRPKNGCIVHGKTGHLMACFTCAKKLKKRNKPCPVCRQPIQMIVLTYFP
Compound,activity at 3 µM (HIV-1),remaining activity at 1 µM (Hmdm2),remaining activity at 1 µM (POSH),remaining activity at 1 µM (Hmdm2; [1]),remaining activity at 1 µM (POSH; [1]),Selectivity (% A* in 1 μM) E2 (E2 protein),remaining activity at 1 µM (c-cbl)
C=CCN1C(=O)/C(=C/c2c3ccccc3cc3ccccc23)SC1=S [Compound 109],60%,106%,67%,,,,
COc1ccc(N2C(=O)NC(=O)/C(=C\C=C\c3ccccc3)C2=O)cc1 [Compound 8],67%,78%,9%,,,,
O=C1NC(=O)C(=Cc2ccc(-c3cc(Cl)ccc3Cl)o2)C(=O)N1 [Compound 1],46%,105%,19%,,,,
CN(C)c1ccc(/C=C2\SC(=S)N(C3CCS(=O)(=O)C3)C2=O)cc1 (centres unmarked) [Compound 110],36%,51%,94%,,,,
O=c1nc(-c2ccc(Br)cc2)cc(-c2ccc([N+](=O)[O-])cc2)[nH]1 [Compound 84],47%,102%,67%,,,,
Cc1ccc(/N=C/c2cccc(O)c2O)cc1C [Compound 56],59%,73%,27%,,,,
C=CCN1C(=O)NC(=O)/C(=C\c2ccccc2)C1=O [Compound 2],66%,108%,50%,,,,
CCCCCCOc1ccc(C=C2C(=O)NC(=S)NC2=O)cc1 [Compound 15],52%,90%,14%,,,,
Cc1cc([N+](=O)[O-])ccc1/N=C/c1ccc[nH]1 [Compound 70],57%,125%,151%,,,,
N=C1NC(=O)/C(=C\c2ccc(-c3ccc(I)cc3)o2)S1 [Compound 29],63%,104%,42%,,,,
O=C1/C(=C\c2cccc([N+](=O)[O-])c2)Sc2ccccc21 [Compound 52],,,,107%,80%,63%,124%
O=c1nc(C(F)(F)F)cc(/C=C/c2ccc(-c3ccc(Br)cc3)o2)[nH]1 [Compound 39],,,,108%,29%,98%,132%
O=C1N=C(c2ccccc2)S/C1=C/c1ccc(-c2cccc([N+](=O)[O-])c2)o1 [Compound 36],,,,71%,6%,82%,86%
COc1ccc(/C=C/C(=O)C2C(=O)CCC2=O)cc1OC [Compound 113],,,,101%,74%,66%,93%
Oc1c(Br)cc(Br)cc1/C=N/c1nc2ccccc2s1 [Compound 62],,,,120%,37%,94%,134%
Cc1ccc(/C=N/c2ccc(Cl)cc2)o1 [Compound 74],,,,107%,17%,96%,110%
Cc1ccc2nsnc2c1/N=C/c1c(O)ccc2ccccc12 [Compound 53],64%,125%,12%,,,,
Cc1cc(I)ccc1NCn1nnc2ccccc21 [Compound 105],,,,102%,28%,93%,117%
Oc1c(Br)cc(Cl)cc1/C=N/c1ccccc1Br [Compound 58],,,,102%,40%,108%,115%
Cc1ccc(/C=N/c2ccc(C(N)=O)cc2)o1 [Compound 73],,,,96%,16%,64%,90%
Oc1ccc(/N=C/c2cccs2)cc1-c1nc2ccccc2s1 [Compound 71],,,,78%,9%,86%,84%
CC(=O)Nc1ccc(-c2cc3ccccn3c2)cc1 [Compound 78],,,,93%,22%,43%,151%
O=C1S/C(=C/c2ccc(-c3ccc([N+](=O)[O-])cc3Cl)o2)C(=O)N1c1ccccc1 [Compound 27],48%,,6%,,,,
O=C(C(Cl)Cl)N1CCN(c2ccc([N+](=O)[O-])cc2)CC1 [Compound 79],,,,94%,120%,55%,89%
N/N=C\c1ccc(-c2cccs2)s1 [Compound 37],,,,107%,41%,97%,93%
O=[N+]([O-])c1ccc2c(c1)Cc1cc(/N=C/c3ccc(Br)cc3)ccc1-2 [Compound 67],,,,104%,103%,98%,92%
O=C1CC(NNc2ccccc2)C(=O)N1c1cccc(Cl)c1 (centres unmarked) [Compound 22],,,,102%,26%,91%,64%
Cc1ccc2nc(-c3ccc(/N=C/c4ccc([N+](=O)[O-])s4)cc3)sc2c1 [Compound 72],,,,124%,39%,77%,95%
COc1ccccc1/C=C1\N=C(c2ccccc2Cl)OC1=O [Compound 49],,,,115%,77%,43%,127%
O=C1C=CC(=O)N1c1cc(Cl)cc(Cl)c1 [Compound 23],,,,107%,9%,112%,102%
